Measured values taken from patent US12448377B2, “Heterocyclic compound” (Takeda Pharmaceutical Company Limited, priority 2019, dated 2025).

Each compound was assayed against T1, human orexin type 2 receptor (Homo sapiens, UniProt O43614) (assay: Measurement of orexin type 2 receptor agonist activity (calcium fluorescence, CHO cells forcibly expressing human OX2 receptor)). Settings: compound at 3 μM, DMSO = 0%, orexin A (human) 10 nM = 100%.
T1 construct: expressed in transfected cells
T1 sequence (O43614 1-444): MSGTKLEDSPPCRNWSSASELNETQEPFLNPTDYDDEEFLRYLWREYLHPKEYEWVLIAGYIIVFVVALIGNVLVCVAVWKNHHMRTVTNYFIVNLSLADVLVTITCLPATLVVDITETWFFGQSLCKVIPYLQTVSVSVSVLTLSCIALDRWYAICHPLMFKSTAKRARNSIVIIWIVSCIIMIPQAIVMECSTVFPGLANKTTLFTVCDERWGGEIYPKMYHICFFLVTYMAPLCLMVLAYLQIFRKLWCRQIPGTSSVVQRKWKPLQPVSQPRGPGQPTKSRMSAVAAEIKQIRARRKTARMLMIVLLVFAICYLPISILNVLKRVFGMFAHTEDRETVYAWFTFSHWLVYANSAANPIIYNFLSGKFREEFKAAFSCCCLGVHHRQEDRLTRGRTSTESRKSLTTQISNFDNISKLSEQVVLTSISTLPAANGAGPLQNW
Assay type: cell-based
From the text: To obtain a cell clone stably expressing human orexin type 2 receptor, human orexin type 2 receptor cDNA was inserted into pcDNA3.1(+) plasmid vector (Invitrogen), and a plasmid DNA for expression of human orexin type 2 receptor (pcDNA3.1(+)/hOX2R) was cloned. The plasmid DNA was introduced into CHO-K1 cell by an electroporation method, and human orexin type 2 receptor-expressing clonal cells were obtained by limiting dilution method using G418 drug resistance as a selection marker.
CHO cells forcibly expressing human OX2 receptor were seeded in each well of 384 well black transparent bottom plate (BD Falcon) at 10,000 cells/well, and cultured for one day in a 5% CO2 incubator at 37° C. After removal of the medium in the cell plate, assay buffer A containing a calcium indicator (HBSS (Thermo Fisher Scientific), 20 mM HEPES (Thermo Fisher Scientific), 0.1% BSA (Sigma-Aldrich), 2.5 μg/mL Fluo-4 AM (DOJINDO Chemical), 0.08% Pluronic F127 (DOJINDO Chemical), 1.25 mM probenecid (DOJINDO Chemical)) was added thereto at 30 μL/well. The plate was stood for 30 min in a 5% CO2 incubator at 37° C., and further stood at room temperature for 30 min. A test compound prepared by diluting with assay buffer B (HBSS, 20 mM HEPES, 0.1% BSA) was added thereto at 10 μL/well, and the fluorescence value was measured by FDSSμCELL (Hamamatsu Photonics K.K.) every one sec for 1 min, and thereafter every two sec for 1 min 40 sec. The activity (%) of the test compound was calculated assuming that variation in the fluorescence value when DMSO was added instead of the test compound was 0%, and variation in the fluorescence value when orexin A (human) (PEPTIDE INSTITUTE, INC.) was added at the final concentration of 10 nM was 100%.

Row | SMILES | OX2R agonist activity (3 μM, %) [%]
1 | Cc1ccc2n(c1=O)C(COC1CCC(c3c(F)cccc3F)CC1)C(NS(C)(=O)=O)CC2 [Example 89, rel-N-[(3S,4R)-4-({[(1s,4S)-4-(2,6-difluorophenyl)cyclohexyl]oxy)methyl)-7-methyl-6-oxo-1,3,4,6-tetrahydro-2H-quinolizin-3-yl]methanesulfonamide] | 89
2 | CCS(=O)(=O)NC1CCc2ccc(C)c(=O)n2C1COC1CCC(C(F)(F)F)CC1 (racemic) [Example 38, rac-N-[(3S,4R)-7-methyl-6-oxo-4-({[(1s,4S)-4-(trifluoromethyl)cyclohexyl]oxy}methyl)-1,3,4,6-tetrahydro-2H-quinolizin-3-yl]ethanesulfonamide] | 88
3 | CCOCC1CCC(OCC2C(NS(C)(=O)=O)CCc3ccc(C)c(=O)n32)CC1 (racemic) [Example 81, rac-N-[(3S,4R)-4-({[(1s,4S)-4-(ethoxymethyl)cyclohexyl]oxy}methyl)-7-methyl-6-oxo-1,3,4,6-tetrahydro-2H-quinolizin-3-yl]methanesulfonamide] | 102
4 | CCc1ccc2n(c1=O)C(COC1CCC(C)CC1)C(NS(=O)(=O)CC)CC2 [Example 71, rel-N-[(3S,4R)-7-ethyl-4-(([(1s,4S)-4-methylcyclohexyl]oxy}methyl)-6-oxo-1,3,4,6-tetrahydro-2H-quinolizin-3-yl)ethanesulfonamide] | 99
5 | Cc1ccc2n(c1=O)C(COC1CCC(CC(C)C)CC1)C(NS(C)(=O)=O)CC2 (racemic) [Example 88, rac-N-[(3S,4R)-7-methyl-4-({[(1a,4S)-4-(2-methylpropyl)cyclohexyl]oxy}methyl)-6-oxo-1,3,4,6-tetrahydro-2H-quinolizin-3-yl]methanesulfonamide] | 95
6 | Cc1ccc2n(c1=O)C(COC1CCC(c3ccccc3C(F)(F)F)CC1)C(NS(C)(=O)=O)CC2 [Example 72, rel-N-{(3S,4R)-7-methyl-6-oxo-4-[({(1s,4S)-4-[2-(trifluoromethyl)phenyl]cyclohexyl}oxy)methyl]-1,3,4,6-tetrahydro-2H-quinolizin-3-yl]methanesulfonamide] | 108
7 | Cc1ccc2n(c1=O)C(COC1CCC(CF)CC1)C(NS(C)(=O)=O)CC2 (racemic) [Example 86, rac-N-[(3S,4R)-4-({[(1s,4S)-4-(fluoromethyl)cyclohexyl]oxy}methyl)-7-methyl-6-oxo-1,3,4,6-tetrahydro-2H-quinolizin-3-yl]methanesulfonamide] | 89
8 | CCS(=O)(=O)NC1CCc2ccc(C)c(=O)n2C1COC1CCC(C(C)C)CC1 (racemic) [Example 13, rac-N-[(3S,4R)-7-methyl-6-oxo-4-({[(1s,4S)-4-(propan-2-yl)cyclohexyl]oxy}methyl)-1,3,4,6-tetrahydro-2H-quinolizin-3-yl]ethanesulfonamide] | 96
9 | Cc1ccc2n(c1=O)C(COC1CCC(c3ccc(F)cc3)CC1)C(NS(C)(=O)=O)CC2 (racemic) [Example 40, rac-N-[(3S,4R)-4-({[(1s,4S)-4-(4-fluorophenyl)cyclohexyl]oxy}methyl)-7-methyl-6-oxo-1,3,4,6-tetrahydro-2H-quinolizin-3-yl]methanesulfonamide] | 89
10 | Cc1ccc(C2CCC(OCC3C(NS(C)(=O)=O)CCc4ccc(C)c(=O)n43)CC2)cc1 (racemic) [Example 33, rac-N-[(3S,4R)-7-methyl-4-({[(1s,4S)-4-(4-methylphenyl)cyclohexyl]oxy}methyl)-6-oxo-1,3,4,6-tetrahydro-2H-quinolizin-3-yl]methanesulfonamide] | 78
11 | C=CC1CCC(OCC2C(NS(C)(=O)=O)CCc3ccc(C)c(=O)n32)CC1 (racemic) [Example 99, rac-N-[(3S,4R)-4-({[(1s,4S)-4-ethenylcyclohexyl]oxy}methyl)-7-methyl-6-oxo-1,3,4,6-tetrahydro-2H-quinolizin-3-yl]methanesulfonamide] | 91
12 | CCC1CCC(OCC2C(NS(C)(=O)=O)CCc3c(C)cc(C)c(=O)n32)CC1 (racemic) [Example 48, rac-N-[(3S,4R)-4-({[(1s,4S)-4-ethylcyclohexyl]oxy}methyl)-7,9-dimethyl-6-oxo-1,3,4,6-tetrahydro-2H-quinolizin-3-yl]methanesulfonamide] | 95
13 | Cc1ccc2n(c1=O)C(COC1CCC(OCC3CC3)CC1)C(NS(C)(=O)=O)CC2 [Example 114, rel-N-[(3S,4R)-4-(([(1s,4S)-4-(cyclopropylmethoxy)cyclohexyl]oxy}methyl)-7-methyl-6-oxo-1,3,4,6-tetrahydro-2H-quinolizin-3-yl]methanesulfonamide] | 69
14 | CCC1CCC(OCC2C(NS(=O)(=O)CC)CCc3ccc(C)c(=O)n32)CC1 (racemic) [Example 11, rac-N-[(3S,4R)-4-({[(1s,4S)-4-ethylcyclohexyl]oxy}methyl)-7-methyl-6-oxo-1,3,4,6-tetrahydro-2H-quinolizin-3-yl]ethanesulfonamide] | 100
15 | Cc1ccc2n(c1=O)C(COC1CCC(C3CC3C)CC1)C(NS(C)(=O)=O)CC2 (racemic) [Example 97, N-{7-methyl-4-[({(1S,4S)-4-[(1RS,2SR)-2-methylcyclopropyl]cyclohexyl)oxy)methyl]-6-oxo-1,3,4,6-tetrahydro-2H-quinolizin-3-yl]methanesulfonamide] | 94
16 | COCCC1CCC(OCC2C(NS(C)(=O)=O)CCc3ccc(C)c(=O)n32)CC1 (racemic) [Example 83, rac-N-[(3S,4R)-4-({[(1s,4S)-4-(2-methoxyethyl)cyclohexyl]oxy}methyl)-7-methyl-6-oxo-1,3,4,6-tetrahydro-2H-quinolizin-3-yl]methanesulfonamide] | 91

Other lines, results leading:

Row | OX2R agonist activity (3 μM, %) [%] | SMILES
17 | 83 | Cc1ccc2n(c1=O)C(COC1CCC(c3ccccc3)CC1)C(NS(=O)(=O)N(C)C)CC2 (racemic) [Example 29, rac-N,N-dimethyl-N′-[(3S,4R)-7-methyl-6-oxo-4-({[(1s,4S)-4-phenylcyclohexyl]oxy}methyl)-1,3,4,6-tetrahydro-2H-quinolizin-3-yl]sulfuric diamide]
18 | 96 | CCS(=O)(=O)NC1CCc2ccc(C)c(=O)n2C1COC1CCC(C(C)(C)C)CC1 (racemic) [Example 18, rac-N-[(3S,4R)-4-({[(1s,4S)-4-tert-butylcyclohexyl]oxy}methyl)-7-methyl-6-oxo-1,3,4,6-tetrahydro-2H-quinolizin-3-yl]ethanesulfonamide]
19 | 86 | Cc1ccc2n(c1=O)C(COC1CCC(C(C)(C)C)CC1)C(NS(=O)(=O)C1CC1)CC2 (racemic) [Example 24, rac-N-[(3S,4R)-4-({[(1s,4S)-4-tert-butylcyclohexyl]oxy}methyl)-7-methyl-6-oxo-1,3,4,6-tetrahydro-2H-quinolizin-3-yl]cyclopropanesulfonamide]
20 | 59 | Cc1ccc2n(c1=O)C(COC1CCC(CC(C)(C)O)CC1)C(NS(C)(=O)=O)CC2 (racemic) [Example 85, rac-N-[(3S,4R)-4-({[(1s,4S)-4-(2-hydroxy-2-methylpropyl)cyclohexyl]oxy}methyl)-7-methyl-6-oxo-1,3,4,6-tetrahydro-2H-quinolizin-3-yl]methanesulfonamide]
21 | 94 | Cc1ccc2n(c1=O)C(COC1CCC(C(C)(C)C)CC1)C(NS(=O)(=O)N(C)C)CC2 (racemic) [Example 30, rac-N′-[(3S,4R)-4-({[(1s,4S)-4-tert-butylcyclohexyl]oxy}methyl)-7-methyl-6-oxo-1,3,4,6-tetrahydro-2H-quinolizin-3-yl]-N,N-dimethylsulfuric diamide]
22 | 89 | Cc1ccccc1C1CCC(OCC2C(NS(=O)(=O)N(C)C)CCc3ccc(C)c(=O)n32)CC1 (racemic) [Example 31, rac-N,N-dimethyl-N′-[(3S,4R)-7-methyl-4-({[(1s,4S)-4-(2-methylphenyl)cyclohexyl]oxy}methyl)-6-oxo-1,3,4,6-tetrahydro-2H-quinolizin-3-yl]sulfuric diamide]
23 | 86 | Cc1ccc2n(c1=O)C(COC1CCC(C(C)(C)C)CC1)C(NS(C)(=O)=O)CC2 (racemic) [Example 17, rac-N-[(3S,4R)-4-({[(1s,4S)-4-tert-butylcyclohexyl]oxy}methyl)-7-methyl-6-oxo-1,3,4,6-tetrahydro-2H-quinolizin-3-yl]methanesulfonamide]
